Test results: patent US7220744B2, “Monocyclic substituted phenyl methanones” (Hoffman-La Roche Inc., priority 2005, dated 2007)

Biological target: T1, mGlyT-1b (Mus musculus, UniProt P28571)
T1 construct: host or cells: Flp-in-CHO cells (vendor and catalogue number are those of the host cell line)
T1 sequence (P28571 1-651 isoform P28571-2): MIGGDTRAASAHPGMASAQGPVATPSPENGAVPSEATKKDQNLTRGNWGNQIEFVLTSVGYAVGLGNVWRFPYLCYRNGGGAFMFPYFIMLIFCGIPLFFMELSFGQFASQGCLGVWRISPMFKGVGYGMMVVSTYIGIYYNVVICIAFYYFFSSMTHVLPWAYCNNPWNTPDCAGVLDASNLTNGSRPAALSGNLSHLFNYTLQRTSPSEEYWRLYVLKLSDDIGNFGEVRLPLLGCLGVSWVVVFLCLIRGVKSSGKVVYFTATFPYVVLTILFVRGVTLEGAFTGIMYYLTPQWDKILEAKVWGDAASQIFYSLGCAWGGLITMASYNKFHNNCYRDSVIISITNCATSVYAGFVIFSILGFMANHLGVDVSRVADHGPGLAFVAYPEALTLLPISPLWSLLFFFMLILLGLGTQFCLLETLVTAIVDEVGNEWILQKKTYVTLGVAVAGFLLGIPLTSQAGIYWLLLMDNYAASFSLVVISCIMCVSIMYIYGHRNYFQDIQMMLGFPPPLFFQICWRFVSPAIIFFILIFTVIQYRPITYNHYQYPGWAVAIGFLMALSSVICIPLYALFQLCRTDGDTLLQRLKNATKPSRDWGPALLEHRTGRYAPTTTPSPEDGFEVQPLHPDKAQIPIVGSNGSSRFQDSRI
Assay: Glycine Uptake Inhibition Assay (mGlyT-1b)
Type: cell-based
Conditions: inhibition of [3H]-glycine uptake in Flp-in-CHO cells transfected with mGlyT-1b cDNA; 20 min preincubation at 22° C.; read-out: IC50 (μM) at GlyT-1
Protocol: DMEM complete medium: Nutrient mixture F-12 (Gibco Life-technologies), fetal bovine serum (FBS) 5%, (Gibco life technologies), Penicillin/Streptomycin 1% (Gibco life technologies), Hygromycin 0.6 mg/ml (Gibco life technologies), Glutamine 1 mM Gibco life technologies)
Uptake buffer (UB): 150 mM NaCl, 10 mM Hepes-Tris, pH 7.4, 1 mM CaCl2, 2.5 mM KCl, 2.5 mM MgSO4, 10 mM (+) D-glucose.
Flp-in™-CHO (Invitrogen Cat n° R758-07) cells stably transfected with mGlyT1b cDNA.
Glycine Uptake Inhibition Assay (mGlyT-1b)
On day 1 mammalian cells, (Flp-in™-CHO), transfected with mGlyT-1b cDNA, were plated at the density of 40,000 cells/well in complete F-12 medium, without hygromycin in 96-well culture plates. On day 2, the medium was aspirated and the cells were washed twice with uptake buffer (UB). The cells were then incubated for 20 min at 22° C. with either (i) no potential competitor, (ii) 10 mM non-radioactive glycine, (iii) a concentration of a potential inhibitor. A range of concentrations of the potential inhibitor was used to generate data for calculating the concentration of inhibitor resulting in 50% of the effect (e.g. IC50, the concentration of the competitor inhibiting glycine uptake of 50%). A solution was then immediately added containing [^3H]-glycine 60 nM (11–16 Ci/mmol) and 25 μM non-radioactive glycine. The plates were incubated with gentle shaking and the reaction was stopped by aspiration of the mixture and washing (three times) with ice-cold UB. The cells were lysed with scintillation liquid, shaken 3 hours and the radioactivity in the cells was counted using a scintillation counter.

SMILES	IC50
CC(Oc1ccc(S(C)(=O)=O)cc1C(=O)N1CCN(c2ncc(C#N)s2)CC1)C(F)(F)F (stereo not drawn) [Example 10, 2-{4-[5-Methanesulfonyl-2-(2,2,2-trifluoro-1-methyl-ethoxy)-benzoyl]-piperazin-1-yl}-thiazole-5-carbonitrile]	0.082 µM
CS(=O)(=O)c1ccc(OCC2CCC2)c(C(=O)N2CCN(c3ncc(C#N)s3)CC2)c1 [Example 14, 2-[4-(2-Cyclobutylmethoxy-5-methanesulfonyl-benzoyl)-piperazin-1-yl]-thiazole-5-carbonitrile]	0.083 µM
CC(C)COc1ccc(S(C)(=O)=O)cc1C(=O)N1CCN(c2ncc(C#N)s2)CC1 [Example 16, 2-[4-(2-Isobutoxy-5-methanesulfonyl-benzoyl)-piperazin-1-yl]-thiazole-5-carbonitrile]	0.065 µM
CC(C)COc1ccc(S(C)(=O)=O)cc1C(=O)N1CCN(c2ncc(S(=O)(=O)c3ccccc3)s2)CC1 [Example 31, [4-(5-Benzenesulfonyl-thiazol-2-yl)-piperazin-1-yl]-(2-isobutoxy-5-methanesulfonyl-phenyl)-methanone]	0.024 µM
CCCCS(=O)(=O)c1cnc(N2CCN(C(=O)c3cc(S(C)(=O)=O)ccc3OC(C)C(F)(F)F)CC2)s1 (stereo not drawn) [Example 39, {4-[5-(Butane-1-sulfonyl)-thiazol-2-yl]-piperazin-1-yl}-[5-methanesulfonyl-2-(2,2,2-trifluoro-1-methyl-ethoxy)-phenyl]-methanone]	0.07 µM
Cc1sc(N2CCN(C(=O)c3cc(S(C)(=O)=O)ccc3OC(C)C(F)(F)F)CC2)nc1C(F)(F)F (stereo not drawn) [Example 55, [5-Methanesulfonyl-2-(2,2,2-trifluoro-1-methyl-ethoxy)-phenyl]-[4-(5-methyl-4-trifluoromethyl-thiazol-2-yl)-piperazin-1-yl]-methanone]	0.073 µM
CC(Oc1ccc(S(C)(=O)=O)cc1C(=O)N1CCN(c2ncc(C(F)(F)F)s2)CC1)C(F)(F)F (stereo not drawn) [Example 59, [5-Methanesulfonyl-2-(2,2,2-trifluoro-1-methyl-ethoxy)-phenyl]-[4-(5-trifluoromethyl-thiazol-2-yl)-piperazin-1-yl]-methanone]	0.098 µM
C[C@@H](Oc1ccc(S(C)(=O)=O)cc1C(=O)N1CCN(c2ncc(C(F)(F)F)s2)CC1)C(F)(F)F [Example 68, [5-Methanesulfonyl-2-((R)-2,2,2-trifluoro-1-methyl-ethoxy)-phenyl]-[4-(5-trifluoromethyl-thiazol-2-yl)-piperazin-1-yl]-methanone]	0.082 µM
CC[C@@H](C)Oc1ccc(S(C)(=O)=O)cc1C(=O)N1CCN(c2ncc(C(F)(F)F)s2)CC1 [Example 77, (2-((R)-sec-Butoxy)-5-methanesulfonyl-phenyl)-[4-(5-trifluoromethyl-thiazol-2-yl)-piperazin-1-yl]-methanone]	0.1 µM
CC[C@H](C)Oc1ccc(S(C)(=O)=O)cc1C(=O)N1CCN(c2ncc(C(F)(F)F)s2)CC1 [Example 78, (2-((S)-sec-Butoxy)-5-methanesulfonyl-phenyl)-[4-(5-trifluoromethyl-thiazol-2-yl)-piperazin-1-yl]-methanone]	0.089 µM

Further lines, results first:

IC50	SMILES
0.061 µM	CC(C)Oc1ccc(S(C)(=O)=O)cc1C(=O)N1CCN(c2ncc(S(=O)(=O)c3ccccc3)s2)CC1 [Example 4, [4-(5-Benzenesulfonyl-thiazol-2-yl)-piperazin-1-yl]-(2-isopropoxy-5-methanesulfonyl-phenyl)-methanone]
0.043 µM	CC(C)(C)COc1ccc(S(C)(=O)=O)cc1C(=O)N1CCN(c2ncc(C#N)s2)CC1 [Example 19, 2-{4-[2-(2,2-Dimethyl-propoxy)-5-methanesulfonyl-benzoyl]-piperazin-1-yl}-thiazole-5-carbonitrile]
0.017 µM	CC(C)(C)COc1ccc(S(C)(=O)=O)cc1C(=O)N1CCN(c2ncc(S(=O)(=O)c3ccccc3)s2)CC1 [Example 29, [4-(5-Benzenesulfonyl-thiazol-2-yl)-piperazin-1-yl]-[2-(2,2-dimethyl-propoxy)-5-methanesulfonyl-phenyl]-methanone]
0.023 µM	CS(=O)(=O)c1ccc(OC2CCCC2)c(C(=O)N2CCN(c3ncc(S(=O)(=O)c4ccccc4)s3)CC2)c1 [Example 30, [4-(5-Benzenesulfonyl-thiazol-2-yl)-piperazin-1-yl]-(2-cyclopentyloxy-5-methanesulfonyl-phenyl)-methanone]
0.018 µM	CCCCS(=O)(=O)c1cnc(N2CCN(C(=O)c3cc(S(C)(=O)=O)ccc3OC3CCCC3)CC2)s1 [Example 41, {4-[5-(Butane-1-sulfonyl)-thiazol-2-yl]-piperazin-1-yl}-(2-cyclopentyloxy-5-methanesulfonyl-phenyl)-methanone]
0.046 µM	CCCCS(=O)(=O)c1cnc(N2CCN(C(=O)c3cc(S(C)(=O)=O)ccc3OCC(C)(C)C)CC2)s1 [Example 42, {4-[5-(Butane-1-sulfonyl)-thiazol-2-yl]-piperazin-1-yl}-[2-(2,2-dimethyl-propoxy)-5-methanesulfonyl-phenyl]-methanone]
0.061 µM	CC(C)(Oc1ccc(S(C)(=O)=O)cc1C(=O)N1CCN(c2ncc(C(F)(F)F)s2)CC1)C(F)(F)F [Example 66, [5-Methanesulfonyl-2-(2,2,2-trifluoro-1,1-dimethyl-ethoxy)-phenyl]-[4-(5-trifluoromethyl-thiazol-2-yl)-piperazin-1-yl]-methanone]
0.046 µM	C[C@H](Oc1ccc(S(C)(=O)=O)cc1C(=O)N1CCN(c2ncc(C(F)(F)F)s2)CC1)C(F)(F)F [Example 67, [5-Methanesulfonyl-2-((S)-2,2,2-trifluoro-1-methyl-ethoxy)-phenyl]-[4-(5-trifluoromethyl-thiazol-2-yl)-piperazin-1-yl]-methanone]
0.056 µM	CC(Oc1ccc(S(C)(=O)=O)cc1C(=O)N1CCN(c2ncc(CC(F)(F)F)s2)CC1)C(F)(F)F (stereo not drawn) [Example 69, [5-Methanesulfonyl-2-(2,2,2-trifluoro-1-methyl-ethoxy)-phenyl]-{4-[5-(2,2,2-trifluoro-ethyl)-thiazol-2-yl]-piperazin-1-yl}-methanone]
0.057 µM	C[C@H](Oc1ccc(S(C)(=O)=O)cc1C(=O)N1CCN(c2ncc(CC(F)(F)F)s2)CC1)C(F)(F)F [Example 70, [5-Methanesulfonyl-2-((S)-2,2,2-trifluoro-1-methyl-ethoxy)-phenyl]-{4-[5-(2,2,2-trifluoro-ethyl)-thiazol-2-yl]-piperazin-1-yl}-methanone]
0.069 µM	C[C@@H](Oc1ccc(S(C)(=O)=O)cc1C(=O)N1CCN(c2ncc(CC(F)(F)F)s2)CC1)C(F)(F)F [Example 71, [5-Methanesulfonyl-2-((R)-2,2,2-trifluoro-1-methyl-ethoxy)-phenyl]-{4-[5-(2,2,2-trifluoro-ethyl)-thiazol-2-yl]-piperazin-1-yl}-methanone]
0.031 µM	CCS(=O)(=O)c1ccc(OC(C)C(F)(F)F)c(C(=O)N2CCN(c3ncc(C(F)(F)F)s3)CC2)c1 (stereo not drawn) [Example 74, [5-Ethanesulfonyl-2-(2,2,2-trifluoro-1-methyl-ethoxy)-phenyl]-[4-(5-trifluoromethyl-thiazol-2-yl)-piperazin-1-yl]-methanone]
0.067 µM	Cc1nc(N2CCN(C(=O)c3cc(S(C)(=O)=O)ccc3OC(C)C)CC2)sc1C(F)(F)F [Example 79, (2-Isopropoxy-5-methanesulfonyl-phenyl)-[4-(4-methyl-5-trifluoromethyl-thiazol-2-yl)-piperazin-1-yl]-methanone]
0.046 µM	Cc1nc(N2CCN(C(=O)c3cc(S(C)(=O)=O)ccc3O[C@@H](C)C(F)(F)F)CC2)sc1C(F)(F)F [Example 80, [5-Methanesulfonyl-2-((S)-2,2,2-trifluoro-1-methyl-ethoxy)-phenyl]-[4-(4-methyl-5-trifluoromethyl-thiazol-2-yl)-piperazin-1-yl]-methanone]
